Results on four compounds are retold here after patent US8394836B2, “Indoles and their therapeutic use” (Pulmagen Therapeutics (Asthma) Limited, priority 2007, dated 2013).

Some results are limits rather than exact numbers.

The target in assay [1] is T1, CRTH2 receptor (Homo sapiens, UniProt Q9Y5Y4).
T1 construct: expressed in transfected cells; host or cells: Human embryonic kidney (HEK) cells, used as membranes
T1 sequence (Q9Y5Y4 1-395): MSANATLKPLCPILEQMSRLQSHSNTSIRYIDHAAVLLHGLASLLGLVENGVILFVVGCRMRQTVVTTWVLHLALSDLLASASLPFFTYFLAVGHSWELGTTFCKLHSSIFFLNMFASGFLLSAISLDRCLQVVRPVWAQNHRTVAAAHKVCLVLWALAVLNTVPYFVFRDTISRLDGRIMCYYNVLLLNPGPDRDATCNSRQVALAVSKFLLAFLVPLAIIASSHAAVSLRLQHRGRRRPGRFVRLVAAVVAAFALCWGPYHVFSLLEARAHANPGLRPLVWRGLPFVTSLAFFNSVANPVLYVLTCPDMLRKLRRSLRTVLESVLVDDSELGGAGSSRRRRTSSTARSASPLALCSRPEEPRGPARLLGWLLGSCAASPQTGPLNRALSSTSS
Kind of assay: CRTH2 radioligand binding assay ([3H]-PGD2 displacement, SPA). The note with it: HEK cell membranes expressing the CRTH2 receptor; 1 nM [3H]-PGD2; Ki from IC50 by Cheng-Prusoff. The protocol:
Compounds of the invention were tested using the following biological test method to determine their ability to displace PGD2 from the CRTH2 receptor.
CRTH2 Radioligand Binding Assay
The receptor binding assay is performed in a final volume of 200 μL binding buffer [10 mM BES (pH 7.4), 1 mM EDTA, 10 mM manganese chloride, 0.01% BSA] and 1 nM [^3H]-PGD2 (Amersham Biosciences UK Ltd). Ligands are added in assay buffer containing a constant amount of DMSO (1% by volume). Total binding is determined using 1% by volume of DMSO in assay buffer and non-specific binding is determined using 10 μM of unlabeled PGD2 (Sigma). Human embryonic kidney (HEK) cell membranes (3.5 μg) expressing the CRTH2 receptor are incubated with 1.5 mg wheatgerm agglutinin SPA beads and 1 nM [^3H]-PGD2 (Amersham Biosciences UK Ltd) and the mixture incubated for 3 hours at room temperature. Bound [^3H]-PGD2 is detected using a Microbeta TRILUX liquid scintillation counter (Perkin Elmer). Compound IC50 value is determined using a 6-point dose response curve in duplicate with a semi-log compound dilution series. IC50 calculations are performed using Excel and XLfit (Microsoft), and this value is used to determine a Ki value for the test compound using the Cheng-Prusoff equation.

For assay [2], the target named is T1, CRTH2 receptor. Kind of assay: GTPγS functional assay. The assay is classed as biochemical. The note with it: HEK cell membranes expressing the CRTH2 receptor; PGD2 30 nM; [35S]-GTPγS; Ki from IC50 by Cheng-Prusoff. As for the experimental part:
The GTP[…]S Assay is performed in a final volume of […] assay buffer (20 mM HEPES pH 7.4, 10 mM MgCl2, 100 mM NaCl, 10 μg/mL saponin). DMSO concentrations are kept constant at 1% by volume. Human embryonic kidney (HEK) cell membranes (3.5 μg) expressing the CRTH2 receptor are incubated with the compounds for 15 min at 30° C. prior to addition of PGD2 (30 nM final concentration) and GTP (10 μM final concentration). The assay solutions are then incubated for 30 minutes at 30° C., followed by addition of [^35S]-GTPγS (0.1 nM final concentration). The assay plate is than shaken and incubated for 5 minutes at 30° C. Finally, SPA beads (Amersham Biosciences, UK) are added to a final concentration of 1.5 mg/well and the plate shaken and incubated for 30 minute at 30° C. The sealed plate is centrifuged at 1000 g for 10 mins at 30° C. and the bound [^35S]-GTPγS is detected on Microbeta scintillation counter (Perkin Elmer). Compound IC50 value is determined using a 6-point dose response curve in duplicate with a semi-log compound dilution series. IC50 calculations are performed using Excel and XLfit (Microsoft), and this value is used to determine a Ki value for the test compound using the Cheng-Prusoff equation.
A general note: Binding of GTPγS marks nucleotide exchange on a G protein.

The term Ki denotes a dissociation constant, usually derived from enzyme kinetics or from competition with a known ligand. A higher Ki goes with weaker binding. As to `Cc1c(Cc2ccccc2S(=O)(=O)N(C)c2ccccc2)c2cc(F)ccc2n1CC(=O)O` [Example 21, {5-fluoro-2-methyl-3-[2-(methylphenylsulfamoyl)benzyl]indol-1-yl}acetic acid], at CRTH2 receptor [1], the affinity, expressed as Ki, was 0.6 nM.
On to `Cc1c(Cc2sccc2S(=O)(=O)c2ccc(F)cc2)c2cc(F)ccc2n1CC(=O)O` [Example 1, {5-fluoro-3-[3-(4-fluorobenzenesulfonyl)thiophen-2-ylmethyl]-2-methylindol-1-yl}acetic acid], for which the values for the inhibition constant Ki at CRTH2 receptor [1] and at CRTH2 receptor [2] were 1.5 nM and less than 10 nM, respectively.
As for `Cc1c(Cc2cccnc2S(=O)(=O)c2ccccc2)c2cc(Cl)ccc2n1CC(=O)O` [Example 26, {5-chloro-3-[2-(benzenesulfonyl)pyridine-3-ylmethyl]-2-methylindol-1-yl}acetic acid], the inhibition constant Ki on CRTH2 receptor [1] is 4.5 nM; at CRTH2 receptor [2], less than 10 nM.
As for `Cc1c(Cc2sccc2S(=O)(=O)c2ccccn2)c2cc(F)ccc2n1CC(=O)O` [Example 16, {5-fluoro-2-methyl-3-[3-(pyridine-2-sulfonyl)thiophen-2-ylmethyl]indol-1-yl}acetic acid], the Ki on CRTH2 receptor [1] was 2.4 nM; on CRTH2 receptor [2], less than 10 nM.
